One series deals with T1, UGT2B17 (Homo sapiens, UniProt O75795).
T1 construct: recombinant human UGT2B17 supersomes (insect cells infected with baculovirus)
T1 sequence (O75795 24-530): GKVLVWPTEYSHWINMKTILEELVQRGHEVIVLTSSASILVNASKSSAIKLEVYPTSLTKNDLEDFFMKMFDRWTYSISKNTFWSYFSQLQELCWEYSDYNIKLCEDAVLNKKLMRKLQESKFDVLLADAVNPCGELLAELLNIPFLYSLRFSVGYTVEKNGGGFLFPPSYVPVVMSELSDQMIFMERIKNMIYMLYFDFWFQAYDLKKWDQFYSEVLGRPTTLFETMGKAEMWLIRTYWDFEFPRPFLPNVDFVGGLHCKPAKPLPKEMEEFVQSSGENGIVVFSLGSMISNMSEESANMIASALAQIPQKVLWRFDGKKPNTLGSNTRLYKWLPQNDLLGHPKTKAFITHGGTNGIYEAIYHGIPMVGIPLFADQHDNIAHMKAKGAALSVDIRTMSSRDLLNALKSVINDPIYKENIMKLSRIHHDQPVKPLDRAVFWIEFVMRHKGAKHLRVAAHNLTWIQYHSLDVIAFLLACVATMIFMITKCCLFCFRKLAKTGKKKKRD
Description: HPLC testosterone glucuronidation assay in recombinant supersomes, Lineweaver-Burk analysis at […] salicylic acid. The format is biochemical.

Substrate in the series “purified protein”: C[C@]12CC[C@H]3[C@@H](CCC4=CC(=O)CC[C@@]43C)[C@@H]1CC[C@@H]2O
In words: purified protein. The note with it: UDPGA; MgCl2.

In the case of `O=C(O)c1ccccc1O` [salicylic acid], the inhibition mode entry on UGT2B17 is given as “UGT2B17 enzyme activity was inhibited uncompetitively by salicylic acid based on the in vitro inhibition study in human supersomes”.

B1: UGT2B17 (Homo sapiens) (protein)
chain: GKVLVWPTEYSHWINMKTILEELVQRGHEVIVLTSSASILVNASKSSAIKLEVYPTSLTKNDLEDFFMKMFDRWTYSISKNTFWSYFSQLQELCWEYSDYNIKLCEDAVLNKKLMRKLQESKFDVLLADAVNPCGELLAELLNIPFLYSLRFSVGYTVEKNGGGFLFPPSYVPVVMSELSDQMIFMERIKNMIYMLYFDFWFQAYDLKKWDQFYSEVLGRPTTLFETMGKAEMWLIRTYWDFEFPRPFLPNVDFVGGLHCKPAKPLPKEMEEFVQSSGENGIVVFSLGSMISNMSEESANMIASALAQIPQKVLWRFDGKKPNTLGSNTRLYKWLPQNDLLGHPKTKAFITHGGTNGIYEAIYHGIPMVGIPLFADQHDNIAHMKAKGAALSVDIRTMSSRDLLNALKSVINDPIYKENIMKLSRIHHDQPVKPLDRAVFWIEFVMRHKGAKHLRVAAHNLTWIQYHSLDVIAFLLACVATMIFMITKCCLFCFRKLAKTGKKKKRD
Regarding B1, the Michaelis constant (Km) (in general, the substrate concentration at which the rate is half of its maximum) in “purified protein” amounted to 259.74 µM.

Source of the values: article PMC8348562, “Potential Assessment of UGT2B17 Inhibition by Salicylic Acid in Human Supersomes In Vitro” (Molecules, 2021).
